Measured values published in patent US7538099B1, “Antiprogestin method and kit for reducing side effects associated with low dosage HRT, oral contraception and regulating menses” (Eastern Virginia Medical School, priority 1992, dated 2009).
Where two headings read alike, the source gives them in different places. Blank lines part the entries; values can stand above or below the compound they belong to.

Experiments:
[1] = tested on: ovariectomized cynomolgus monkeys; experiment: Example II: vaginal bleeding in ovariectomized monkeys on estradiol and estradiol plus progesterone replacement, intermittent onapristone; format: in vivo, Macaca fascicularis
Description: (§1) Twenty previously ovariectomized cynomolgus monkeys (Macaca fascicularis) have implanted for 281 days a single estradiol-containing subcutaneous capsule. Estradiol release from this capsule results in serum estradiol concentrations of approximately 75 pg/ml. A subcutaneous progesterone capsule is implanted on day 191 and remains in place until day 281. Progesterone release from this capsule results in serum progesterone concentrations of approximately 4 ng/ml. The study takes place in the animal research facilities of the Eastern Virginia Medical School as described in Example I.
The purpose of this study was to evaluate break-through bleeding prior to and after onapristone treatment in ovariectomized monkeys receiving estrogen and estrogen plus progesterone replacement therapy. The twenty monkeys were assigned to the following four groups: Group I receives onapristone vehicle (saline) on days 30, 60, 90, 120, 150, 180, 210, 240, 270. Group 2 receives 3 mg/kg i.m. onapristone on days 30, 60, 90, 120, 150, 180, 210, 240, 270. Group 3 is treated with 10 mg/kg i.m. onapristone on the same days. Group 4 receives 30 mg/kg i.m. onapristone on the same days. Vaginal swabs are performed daily from day 1 to 281. The primary parameter for evaluation in this study is the occurrence of vaginal bleeding.

[2] = tested on: ovariectomized cynomolgus monkeys; experiment: Example III: vaginal bleeding in ovariectomized monkeys on estradiol and low-dose progesterone implants, onapristone 40 mg/kg im; format: in vivo; settings: for incidence of breakthrough bleeding: 40 mg/kg im, estradiol and low-dose progesterone replacement
Description: (§2) Twenty ovariectomized cynomolgus monkeys were implanted subcutaneously with an estradiol-containing silastic capsule (3 cm length).
The study was undertaken in two phases.
(§3) All monkeys have reached at least day 272. The estradiol implant will remain in place to day 301. […] A smaller progesterone implant (0.5 cm) will be in place from day 210 to 294. This implant is intended to produce a serum progesterone concentration of approximately 0.7 ng/ml. The two experimental groups (M=10/group) were as follows: • Group 1 Onapristone vehicle (saline) on days 180, 197, 240, and 270 • Group 2 Onapristone […] (40 mg/kg, im) on days 180, 197, 240, and 270

[3] = Example II: serum hormone concentrations from subcutaneous capsules; format: in vivo, Macaca fascicularis
Description: as §1

[4] = tested on: adult female rhesus monkeys; experiment: Example I Part II: daily vaginal swabs for bleeding, ultra low dose oral contraception with or without intermittent RU 486, 180 days; format: in vivo, Macaca mulatta
Description: In Part II, 30 of these primates were randomly assigned to five treatment groups of six each: (1) the oral contraceptive medication employed in Part I was continued (21+7 day regimen) for 6 months; (2) continuous (no “pill-free” interval) daily estrogen-progestin medication, with combined single day oral administration of an antiprogestin (RU 486) on treatment days 30, 60, 90, 120, 150, and 180; (3) same as group 2, except that the progesterone antagonist was given only on days 60, 120, and 180; (4) same as group 2, except that RU 486 was given only on days 90 and 180; and (5) 180 days of continuous estrogen-progestin daily therapy, but without any antiprogestin treatment. Daily monitoring to detect vaginal blood, as in Part I above, was discontinued at 187 days. Femoral blood was collected once weekly throughout in order to identify potential breakthrough ovulation via progesterone elevations; serum values above 1.0 ng/ml were considered indicative of ovarian luteal function and possible ovulation. Likewise, these same specimens were analyzed for estradiol levels in order to monitor ongoing endogenous estrogen biosynthesis. […]
Data derived from Part II of the study was listed by treatment group with the profiles of endometrial bleeding through six treatment cycles to 180 days. Mean (+SEM) number of days for breakthrough bleeding or menses was calculated by dividing the total number of incidents recorded (per treatment cycle in the case of group 1 or 30 days intervals for groups 2 to 5) by the number of individuals observed in the group. In the tabulation of data, menses (withdrawal or induced bleeding at expected intervals) was scored for vaginal blood detected within the “pill free” interval for group 1 or within seven days after the intermittent administration of RU 486 during continuous ultra low dose oral contraception (groups 2 to 4). Similarly, failure to observe vaginal bleeding during these times of expected menses, either withdrawal of the oral contraceptive medication or soon after giving the progesterone antagonist, was scored as withdrawal amenorrhea.

[5] = tested on: ovulation (serum estradiol and progesterone); experiment: Example I Part II: weekly serum progesterone and estradiol (breakthrough ovulation, endogenous estrogen biosynthesis); format: in vivo, Macaca mulatta; settings: continuous ultra low dose regimen plus intermittent RU 486; almost unvarying
Description: In Part II, 30 of these primates were randomly assigned to five treatment groups of six each: (1) the oral contraceptive medication employed in Part I was continued (21+7 day regimen) for 6 months; (2) continuous (no “pill-free” interval) daily estrogen-progestin medication, with combined single day oral administration of an antiprogestin (RU 486) on treatment days 30, 60, 90, 120, 150, and 180; (3) same as group 2, except that the progesterone antagonist was given only on days 60, 120, and 180; (4) same as group 2, except that RU 486 was given only on days 90 and 180; and (5) 180 days of continuous estrogen-progestin daily therapy, but without any antiprogestin treatment. Daily monitoring to detect vaginal blood, as in Part I above, was discontinued at 187 days. Femoral blood was collected once weekly throughout in order to identify potential breakthrough ovulation via progesterone elevations; serum values above 1.0 ng/ml were considered indicative of ovarian luteal function and possible ovulation. Likewise, these same specimens were analyzed for estradiol levels in order to monitor ongoing endogenous estrogen biosynthesis. Two monkeys, in groups 1 and 3, respectively, were dropped from the ongoing protocol, one due to a skin rash and the other because of a thumb infection requiring topical treatment. Neither incident is believed to be related to the hormonal treatments.

[6] = design: species or system cynomolgus monkeys; settings: female, cynomolgus monkey, in vivo, sc
Description: as §2, §3

Compound: CN(C)c1ccc([C@H]2C[C@]3(C)[C@@H](CC[C@]3(O)CCCO)[C@@H]3CCC4=CC(=O)CCC4=C32)cc1 [Onapristone]
incidence of breakthrough bleeding ([1]; Groups 2-4: 3, 10, 30 mg/kg i.m. every 30 days, estradiol capsule): lowers the incidence of breakthrough bleeding
induction of bleeding by onapristone during estradiol treatment ([1]; Groups 2-4: 3, 10, 30 mg/kg i.m. every 30 days, estradiol capsule only): does not induce bleeding
induction of vaginal bleeding during combined estradiol and progestin treatment ([1]; after progesterone capsule implanted (day 191)): induces vaginal bleeding
incidence of breakthrough bleeding [2]: reduced the incidence of BTBs
incidence of breakthrough bleeding ([2]; listed as onapristone): reduced the incidence of breakthrough bleeding
days of bleeding that followed the day 197 onapristone treatment ([2]; Group 2, 40 mg/kg): Twelve of the twenty days
monkeys in which bleeding followed the day 197 treatment ([2]; Group 2, 40 mg/kg): four of the ten monkeys
monkeys in which bleeding occurred ([2]; Group 2, 40 mg/kg): seven of the ten monkeys
days of unscheduled vaginal bleeding (breakthrough bleeding) ([2]; Group 2, 40 mg/kg im, controls 33 days): 2 days
days of bleeding that followed the day 240 onapristone treatment ([2]; Group 2, 40 mg/kg, in one monkey): Six of the twenty days
days of vaginal bleeding ([2]; Group 2, 40 mg/kg, out of 800 days of observation): 20 days
withdrawal-bleeding ([2]; monkeys substituted with E2 and low-dose progesterone): induced withdrawal-bleeding

serum progesterone concentrations ([3]; subcutaneous progesterone capsule, day 191 to 281): approximately 4 ng/ml
BTBs after addition of low-dose progesterone ([2]; on estradiol implant): increase in BTBs
Compound: CC(=O)[C@H]1CC[C@H]2[C@@H]3CCC4=CC(=O)CC[C@]4(C)[C@H]3CC[C@]12C [progesterone]

Compound: CC#C[C@]1(O)CC[C@H]2[C@@H]3CCC4=CC(=O)CCC4=C3[C@@H](c3ccc(N(C)C)cc3)C[C@@]21C [RU 486]
duration of menses after RU 486 ([4]; RU 486 50 mg intermittently during continuous ultra low dose oral contraception, P<0.05 versus interrupted pill cycle alone): 3.1 ± 0.8 days
time to induced bleeding after RU 486, all instances ([4]; administered at 30, 60 or 90 day intervals): ≤ 72 h
reduction of overall breakthrough bleeding incidence ([4]; single 50 mg oral RU 486 doses at 30, 60 or 90 day intervals during continuous ultra low dose oral contraception, groups 2 to 4 combined versus group 1, P<0.05): 57%
serum estradiol levels [5]: ~25 pg/mL

rate of breakthrough bleeding with progressing duration of estradiol treatment ([1]; Group 1, estradiol capsule, onapristone vehicle): increasing rate of breakthrough bleeding
serum estradiol concentrations ([3]; single estradiol-containing subcutaneous capsule): approximately 75 pg/ml
breakthrough bleedings (BTBs) with E2 alone ([2]; ovariectomized monkeys substituted with E2 alone): do not exhibit breakthrough bleedings
serum estradiol concentrations [6]: approximately 75 pg/ml
Compound: C[C@]12CC[C@@H]3c4ccc(O)cc4CC[C@H]3[C@@H]1CC[C@@H]2O [estradiol]
